Patent publication US20130245081A1, “Compositions and Methods for Treating Amyotrophic Lateral Sclerosis” (priority 2009, published 2013)
Several values for one entry are separate records, joined by “and”; a condition that tells them apart may be missing. Equal values may be shown once. Read-outs that look alike come from different tables or passages of the source. Marks after values point to notes of the source that are not given here.

Assays:
[1] = test system: patients with ALS; conditions: for treatment failures (6-point or greater drop in ALSFRS-R total score): baseline to 12 weeks; for treatment failures (reduction in VC of 20% or greater): baseline to Week 12
[2] = test system: patients with ALS; assay: Part 2: 4-week single-blind placebo washout period (withdrawal effects)
[3] = 50 mg during Part 1, placebo washout period
[4] = 150 mg during Part 1, placebo washout period

For `CCCN[C@@H]1CCc2nc(N)sc2C1` [dexpramipexole, (6R)-2-amino-4,5,6,7-tetrahydro-6-(propylamino)benzothiazole], the “treatment failures (6-point or greater drop in ALSFRS-R total score)” value ([1]; 50 mg/day) was 35%, the “mean change from baseline to endpoint in ALSFRS-R total score” value (“mean change from baseline to endpoint” below) ([1]; 50 mg, 12 weeks) was −5.0 and the “median change from baseline to endpoint in ALSFRS-R score” value (“median change from baseline to endpoint” for short) ([1]; 50 mg, 12 weeks) was −3.0. The “mean ALSFRS-R total score” value ([1]; 50 mg, Week 12 of Part 1) was 32.4, the “mean McGill SIS score” value ([1]; 50 mg, Week 12 of Part 1) was 6.3 and the “mean upright VC” value ([1]; 50 mg, Week 12 of Part 1) was 82.5%. The “treatment failures (reduction in VC of 20% or greater)” value ([1]; 50 mg) was 13%, the “treatment failures (6-point or greater drop in ALSFRS-R total score)” value ([1]; 150 mg/day) was 15% and the “mean change from baseline to endpoint” value ([1]; 150 mg, 12 weeks) was −3.3. For the same molecule, the “median change from baseline to endpoint” value ([1]; 150 mg, 12 weeks) was −2.5, the “mean ALSFRS-R total score” value ([1]; 150 mg, Week 12 of Part 1) was 35.8 and the “mean upright VC” value ([1]; 150 mg, Week 12 of Part 1) was 82.3%. For the same molecule, the “treatment failures (reduction in VC of 20% or greater)” value ([1]; 150 mg) was 12%, the “treatment failures (6-point or greater drop in ALSFRS-R total score)” value ([1]; 300 mg/day) was 8% and the “mean fine motor domain change of ALSFRS-R (mean±SEM)” value ([1]; 300 mg/day, study endpoint) was −0.6±0.24. The “mean change from baseline to endpoint” value ([1]; 300 mg, 12 weeks) was −2.2, the “median change from baseline to endpoint” value ([1]; 300 mg, 12 weeks) was −2.0 and the “reduction of mean ALSFRS-R decline compared with placebo” value ([1]; 300 mg, 12 weeks) was 39%. For the same molecule, the “reduction of median ALSFRS-R decline compared with placebo” value ([1]; 300 mg, 12 weeks) was 50%, the “slope of ALSFRS-R scores (linear mixed-effects)” value ([1]; 300 mg, Part 1) was −0.878 and the “mean ALSFRS-R total score” value ([1]; 300 mg, Week 12 of Part 1) was 36.2. For the same molecule, the “mean McGill SIS score” value ([1]; 300 mg, Week 12 of Part 1) was 7.3, the “mean upright VC” value ([1]; 300 mg, Week 12 of Part 1) was 82.1% and the “median upright VC” value ([1]; 300 mg, Week 12 of Part 1) was 91.2%. For the same molecule, the “treatment failures (reduction in VC of 20% or greater)” value ([1]; 300 mg) was 4%, the “reduction in handwriting score (FIG. 4A)” value ([1]; daily doses of 30 mg (so in the source)) was “almost no reduction” and the “Neutrophil Count, Mean (SD)” value ([2]; 50 mg during Part 1, Baseline (Part 1: Week 12)) was 4.539 (1.3112) ×10^3/μL. The “Neutrophil Count, Mean (SD)” value ([2]; 50 mg during Part 1, Part 2: Week 4 (end of placebo washout)) was 4.470 (1.3436) ×10^3/μL, the “ALS-related TEAE: Disease progression” value [2, 3] was 1 (5%) N (%) and the “ALS-related TEAE: Dyspnoea” value [2, 3] was 1 (5%) N (%). The “ALS-related TEAE: Fall” value [2, 3] was 2 (9%) N (%), the “ALS-related TEAE: General Disorders and Administration Site Conditions” value [2, 3] was 2 (9%) N (%) and the “ALS-related TEAE: Injury, Poisoning and Procedural Complications” value [2, 3] was 2 (9%) N (%). The “ALS-related TEAE: Muscle spasms” value [2, 3] was 1 (5%) N (%), the “ALS-related TEAE: Muscular weakness” value [2, 3] was 4 (18%) N (%) and the “ALS-related TEAE: Musculoskeletal and Connective Tissue Disorders” value [2, 3] was 4 (18%) N (%). For the same molecule, the “ALS-related TEAE: Respiratory, Thoracic and Mediastinal Disorders” value [2, 3] was 1 (5%) N (%), the “Neutrophil Count, Mean Δ (SD) from baseline to Week 4” value [2, 3] was −0.022 (0.7157) ×10^3/μL and the “Number of TEAEs” value [2, 3] was 18. For the same molecule, the “Number of serious TEAEs” value [2, 3] was 2, the “Number of severe TEAEs” value [2, 3] was 2 and the “Number of treatment-related TEAEs” value [2, 3] was 2. The “Subjects with a TEAE with action taken of study drug discontinued” value [2, 3] was 0 N (%), the “Subjects with ≧1 ALS-related TEAE” value [2, 3] was 7 (32%) N (%) and the “TEAE: Anxiety” value [2, 3] was 1 (5%) N (%). For the same molecule, the “TEAE: Back pain” value [2, 3] was 2 (9%) N (%), the “TEAE: Constipation” value [2, 3] was 0 N (%) and the “TEAE: Cough” value [2, 3] was 0 N (%). The “TEAE: Diarrhoea” value [2, 3] was 0 N (%), the “TEAE: Dyspnoea” value [2, 3] was 1 (5%) N (%) and the “TEAE: Fall” value [2, 3] was 2 (9%) N (%). The “TEAE: Gastrointestinal Disorders” value [2, 3] was 0 N (%), the “TEAE: General Disorders and Administration Site Conditions” value [2, 3] was 2 (9%) N (%) and the “TEAE: Injury, Poisoning and Procedural Complications” value [2, 3] was 2 (9%) N (%). For the same molecule, the “TEAE: Muscle spasms” value [2, 3] was 1 (5%) N (%), the “TEAE: Muscular weakness” value [2, 3] was 4 (18%) N (%) and the “TEAE: Musculoskeletal and Connective Tissue Disorders” value [2, 3] was 6 (27%) N (%). The “TEAE: Nausea” value [2, 3] was 0 N (%), the “TEAE: Post lumbar puncture syndrome” value [2, 3] was 0 N (%) and the “TEAE: Psychiatric Disorders” value [2, 3] was 1 (5%) N (%). The “TEAE: Pyrexia” value [2, 3] was 1 (5%) N (%), the “TEAE: Respiratory, Thoracic and Mediastinal Disorders” value [2, 3] was 1 (5%) N (%) and the “mean change from baseline in ALSFRS-R score over 4 weeks” value [2, 3] was −0.7. For the same molecule, the “mean change from baseline in VC over 4 weeks” value [2, 3] was −2.9%, the “serious TEAE: Disease progression” value [2, 3] was 1 (5%)^a N (%) and the “serious TEAE: Dyspnoea” value [2, 3] was 1 (5%)^a N (%). For the same molecule, the “serious TEAE: General Disorders and Administration Site Conditions” value [2, 3] was 1 (5%) N (%), the “serious TEAE: Renal and Urinary Disorders” value [2, 3] was 0 N (%) and the “serious TEAE: Respiratory, Thoracic and Mediastinal Disorders” value [2, 3] was 1 (5%) N (%). The “serious TEAE: Urethral obstruction” value [2, 3] was 0 N (%), the “serious TEAE: Urinary retention” value [2, 3] was 0 N (%) and the “≧1 TEAE” value [2, 3] was 9 (41%) N (%). For the same molecule, the “≧1 TEAE with an outcome of death” value [2, 3] was 2 N (%) and 2 (9%) N (%), the “≧1 serious TEAE (including death)” value [2, 3] was 2 (9%) N (%) and the “≧1 serious treatment-related TEAE” value [2, 3] was 0 N (%). The “≧1 severe TEAE” value [2, 3] was 2 (9%) N (%), the “≧1 treatment-related TEAE” value [2, 3] was 2 (9%) N (%) and the “Neutrophil Count, Mean (SD)” value ([2]; 150 mg during Part 1, Baseline (Part 1: Week 12)) was 3.931 (1.4130) ×10^3/μL. For the same molecule, the “Neutrophil Count, Mean (SD)” value ([2]; 150 mg during Part 1, Part 2: Week 4 (end of placebo washout)) was 4.753 (1.5327) ×10^3/μL, the “ALS-related TEAE: Disease progression” value [2, 4] was 0 N (%) and the “ALS-related TEAE: Dyspnoea” value [2, 4] was 0 N (%). For the same molecule, the “ALS-related TEAE: Fall” value [2, 4] was 3 (12%) N (%), the “ALS-related TEAE: General Disorders and Administration Site Conditions” value [2, 4] was 0 N (%) and the “ALS-related TEAE: Injury, Poisoning and Procedural Complications” value [2, 4] was 3 (12%) N (%). For the same molecule, the “ALS-related TEAE: Muscle spasms” value [2, 4] was 1 (4%) N (%), the “ALS-related TEAE: Muscular weakness” value [2, 4] was 1 (4%) N (%) and the “ALS-related TEAE: Musculoskeletal and Connective Tissue Disorders” value [2, 4] was 2 (8%) N (%). For the same molecule, the “ALS-related TEAE: Respiratory, Thoracic and Mediastinal Disorders” value [2, 4] was 1 (4%) N (%), the “Neutrophil Count, Mean Δ (SD) from baseline to Week 4” value [2, 4] was 0.841 (1.1854) ×10^3/μL and the “Number of TEAEs” value [2, 4] was 29.
